Laboratory results as given in patent publication US10131652B2, “Pyrimidinyloxy benzene derivatives as herbicides” (E. I. DU PONT DE NEMOURS AND COMPANY, priority 2014, dated 2018).
Where two headings read alike, the source gives them in different places.

Key:
Type in all cases: in vivo
[1] = tested on: barnyardgrass (Echinochloa crus-galli); assay: Test B pre-/postemergence plant response; conditions: Echinochloa crus-galli, 240 h, 1000 g ai/ha, 0 to 100 scale (0 no effect, 100 complete control), read-out: Plant response rating, Barnyardgrass
Method in brief: (§1)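 Scoring used a 0–100 scale (100 = complete control) by visual comparison with untreated plants after approximately 10 days in the greenhouse. Compounds, in surfactant-containing non-phytotoxic solvent, were sprayed onto soil at planting or onto 2–10 cm seedlings.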

[2] = tested on: corn (Zea mays); assay: Test B pre-/postemergence plant response; conditions: Zea mays, 240 h, 1000 g ai/ha, 0 to 100 scale (0 no effect, 100 complete control)
Method in brief: as §1

[3] = tested on: giant foxtail (Setaria faberii); assay: Test B pre-/postemergence plant response; conditions: Setaria faberi, 240 h, 1000 g ai/ha, 0 to 100 scale (0 no effect, 100 complete control), read-out: Plant response rating, Foxtail, Giant
Method in brief: as §1

[4] = tested on: pigweed (Amaranthus retroflexus); assay: Test B pre-/postemergence plant response; conditions: Amaranthus retroflexus, 240 h, 1000 g ai/ha, 0 to 100 scale (0 no effect, 100 complete control), read-out: Plant response rating, Pigweed
Method in brief: as §1

[5] = tested on: wheat (Triticum aestivum); assay: Test B pre-/postemergence plant response; conditions: Triticum aestivum, 240 h, 1000 g ai/ha, 0 to 100 scale (0 no effect, 100 complete control), read-out: Plant response rating, Wheat
Method in brief: as §1

[6] = tested on: barnyardgrass (Echinochloa crus-galli); assay: Test C flooded paddy test plant response; conditions: Echinochloa crus-galli; Flood, 250 g ai/ha; scale of 0 to 100 where 0 is no effect and 100 is complete control; 13 to 15 days; read-out: Barnyardgrass plant response rating
Method in brief: (§2)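 Two-leaf stage → flood to 3 cm → compound into water → hold depth, greenhouse 13–15 d → visual score vs controls (0 none, 100 complete control).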

[7] = tested on: ducksalad (Heteranthera limosa); assay: Test C flooded paddy test plant response; conditions: Heteranthera limosa; Flood, 250 g ai/ha; scale of 0 to 100 where 0 is no effect and 100 is complete control; 13 to 15 days; read-out: Ducksalad plant response rating
Method in brief: as §2

[8] = tested on: rice (Oryza sativa); assay: Test C flooded paddy test plant response; conditions: Oryza sativa; Flood, 250 g ai/ha; scale of 0 to 100 where 0 is no effect and 100 is complete control; 13 to 15 days; read-out: Rice plant response rating
Method in brief: as §2

[9] = tested on: small-flower umbrella sedge (Cyperus difformis); assay: Test C flooded paddy test plant response; conditions: Cyperus difformis; Flood, 250 g ai/ha; scale of 0 to 100 where 0 is no effect and 100 is complete control; 13 to 15 days; read-out: Sedge, Umbrella plant response rating
Method in brief: as §2

[10] = tested on: johnsongrass (Sorghum halepense); assay: Test D pre-/postemergence plant response; conditions: Sorghum halepense; for pest or weed control at 8 g/ha: 8 g ai/ha; for pest or weed control at 16 g/ha: 16 g ai/ha; for pest or weed control at 31 g/ha: 31 g ai/ha; for pest or weed control at 62 g/ha: 62 g ai/ha
Excerpt: (§3) Seeds of plant species selected from blackgrass (Alopecurus myosuroides), Italian ryegrass (Lolium multiflorum), winter wheat (Triticum aestivum), galium (catchweed bedstraw, Galium aparine), corn (Zea mays), large (Lg) crabgrass (Digitaria sanguinalis), giant foxtail (Setaria faberii), johnsongrass (Sorghum halepense), lambsquarters (Chenopodium album), morningglory (Ipomoea coccinea), yellow nutsedge (Cyperus esculentus), pigweed (Amaranthus retroflexus), ragweed (common ragweed, Ambrosia elatior), soybean (Glycine max), bamyardgrass (Echinochloa crus-galli), oilseed rape (Brassica napus), waterhemp (common waterhemp, Amaranthus rudis), and velvetleaf (Abutilon theophrasti) were planted into a blend of loam soil and sand and treated preemergence with test chemicals formulated in a non-phytotoxic solvent mixture which included a surfactant. At the same time, plants selected from these crop and weed species and also kochia (Kochia scoparia), wild oat (Avena fatua), and chickweed (common chickweed, Stellaria media) were planted in pots containing Redi-Earth® planting medium (Scotts Company, 14111 Scottslawn Road, Marysville, Ohio 43041) comprising spaghnum peat moss, vermiculite, wetting agent and starter nutrients and treated with postemergence applications of test chemicals formulated in the same manner. Plants ranged in height from 2 to 18 cm (1- to 4-leaf stage) for postemergence treatments. Treated plants and controls were maintained in a greenhouse for 13 to 15 days, after which time all species were compared to controls and visually evaluated. Plant response ratings, summarized in Table D, are based on a scale of 0 to 100 where 0 is no effect and 100 is complete control. A dash (-) response means no test result.

[11] = tested on: lambsquarters (Chenopodium album); assay: Test D pre-/postemergence plant response; conditions: Chenopodium album; for pest or weed control at 8 g/ha: 8 g ai/ha; for pest or weed control at 16 g/ha: 16 g ai/ha; for pest or weed control at 31 g/ha: 31 g ai/ha; for pest or weed control at 62 g/ha: 62 g ai/ha
Excerpt: as §3

[12] = tested on: morningglory (Ipomoea coccinea); assay: Test D pre-/postemergence plant response; conditions: Ipomoea; for pest or weed control at 8 g/ha: 8 g ai/ha
Excerpt: as §3

[13] = post-emergence, Postemergence, scale 0 to 100 (0 no effect, 100 complete control), read-out: Johnsongrass plant response rating
[14] = pre-emergence, Preemergence, scale 0 to 100 (0 no effect, 100 complete control), read-out: Plant response rating, Johnsongrass
[15] = post-emergence, Postemergence, scale 0 to 100 (0 no effect, 100 complete control), read-out: Lambsquarters plant response rating
[16] = pre-emergence, Preemergence, scale 0 to 100 (0 no effect, 100 complete control), read-out: Plant response rating, Lambsquarters

## FC(F)c1cc(-c2ccccc2Oc2ncc(Cl)cn2)no1 [Compound 35, 5-chloro-2-[2-[5-(difluoromethyl)-3-isoxazolyl]phenoxy]pyrimidine]
[1]; post-emergence, Postemergence
  pest or weed control at 1000 g/ha: 100%
[1]; pre-emergence, Preemergence
  pest or weed control at 1000 g/ha: 100%
[2]; post-emergence, Postemergence
  Corn plant response rating (crop injury, 0 = no effect, 100 = complete kill) at 1000 g/ha: 90%
[2]; pre-emergence, Preemergence
  Corn plant response rating (crop injury, 0 = no effect, 100 = complete kill) at 1000 g/ha: 30%
[3]; post-emergence, Postemergence
  pest or weed control at 1000 g/ha: 90%
[3]; pre-emergence, Preemergence
  pest or weed control at 1000 g/ha: 100%
[4]; post-emergence, Postemergence
  pest or weed control at 1000 g/ha: 100%
[4]; pre-emergence, Preemergence
  pest or weed control at 1000 g/ha: 10%
[5]; post-emergence, Postemergence
  plant injury at 1000 g/ha: 80%
[5]; pre-emergence, Preemergence
  plant injury at 1000 g/ha: 60%
[6]
  pest or weed control at 250 g/ha: 65%
[7]
  pest or weed control at 250 g/ha: 100%
[8]
  plant injury at 250 g/ha: 80%
[9]
  pest or weed control at 250 g/ha: 100%
[10]; post-emergence, Postemergence, read-out: Plant response rating (scale 0 to 100), Johnsongrass
  pest or weed control at 8 g/ha: 0%
[10]; [13]
  pest or weed control at 16 g/ha: 10%
  pest or weed control at 31 g/ha: 5%
[10]; post-emergence, Postemergence, scale 0 to 100, 0 no effect, 100 complete control, read-out: Plant response rating, Johnsongrass
  pest or weed control at 62 g/ha: 35%
[10]; [14]
  pest or weed control at 8 g/ha: 0%
  pest or weed control at 16 g/ha: 10%
  pest or weed control at 31 g/ha: 60%
  pest or weed control at 62 g/ha: 98%
[11]; post-emergence, Postemergence, read-out: Plant response rating (scale 0 to 100), Lambsquarters
  pest or weed control at 8 g/ha: 75%
[11]; [15]
  pest or weed control at 16 g/ha: 80%
  pest or weed control at 31 g/ha: 85%
[11]; post-emergence, Postemergence, scale 0 to 100, 0 no effect, 100 complete control, read-out: Plant response rating, Lambsquarters
  pest or weed control at 62 g/ha: 95%
[11]; [16]
  pest or weed control at 8 g/ha: 100%
  pest or weed control at 16 g/ha: 100%
  pest or weed control at 31 g/ha: 98%
  pest or weed control at 62 g/ha: 100%
[12]; post-emergence, Postemergence, read-out: Plant response rating (scale 0 to 100), Morningglory
  pest or weed control at 8 g/ha: 25%
[12]; post-emergence, Postemergence, 16 g ai/ha, scale 0 to 100 (0 no effect, 100 complete control), read-out: Morningglory plant response rating
  pest or weed control at 16 g/ha: 60%
[12]; post-emergence, Postemergence, 31 g ai/ha, scale 0 to 100 (0 no effect, 100 complete control), read-out: Morningglory plant response rating
  pest or weed control at 31 g/ha: 85%
[12]; post-emergence, Postemergence, 62 g ai/ha, scale 0 to 100, 0 no effect, 100 complete control, read-out: Plant response rating, Morningglory
  pest or weed control at 62 g/ha: 98%
[12]; pre-emergence, Preemergence, scale 0 to 100 (0 no effect, 100 complete control), read-out: Plant response rating, Morningglory
  pest or weed control at 8 g/ha: 0%
